The results in this text go back to ChEMBL document CHEMBL1201862, “PubChem BioAssay data set” (2004).

Structures are written as SMILES.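 Following 48 hours of exposure in 96-well plates, responses at five concentrations were used to interpolate endpoints linearly. At the GI50, growth is halved.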 The source made the active and inactive calls. Cut-off read from the data, not from the text of the source: active = GI50 up to about 1.1 µM and inactive = higher. Where only a bound is given, the exact number is not on record here.

Some test systems named below: MCF7; BT-549; SK-MEL-2; MDA-N; SNB-75; COLO 205; HT-29; LOX IMVI; TK-10; A498; SF-295; RPMI-8226; MDA-MB-435; M14; HOP-62; DU-145; KM12; NCI-H460; Hs-578T; SNB-19.
Common to all, as to test: NCI tumour cell line growth inhibition, 48 h

For the molecule `N#Cc1c(-c2nc3ccccc3s2)c(=O)oc2cc(O)ccc12`, the GI50 with MCF7 is 34.5 µM (inactive); with BT-549, 16.7 µM (inactive); in the experiment with SK-MEL-2, 49.7 µM (inactive); in the experiment with MDA-N, 33.1 µM (inactive); with SNB-75 it was > 100 µM (inactive); with COLO 205, 13.3 µM (inactive). Moreover, the GI50 in the experiment with HT-29 is 13 µM (inactive); in the experiment with LOX IMVI, 28.6 µM (inactive); with TK-10 it was > 100 µM (inactive); with A498, 23 µM (inactive); with SF-295 it was 36.4 µM (inactive); in the experiment with RPMI-8226 it was 13.1 µM (inactive). Also, the GI50 in the experiment on MDA-MB-435 was 27.8 µM (inactive); in the experiment with M14, 35.2 µM (inactive); with HOP-62, 16.7 µM (inactive); in the experiment on DU-145, 22.6 µM (inactive); with KM12 it was 22.3 µM (inactive); in the experiment on NCI-H460, 27.8 µM (inactive). The figures for the GI50 in the experiment on Hs-578T and in the experiment on SNB-19 were 20 µM (inactive) and 46 µM (inactive), respectively.
Turning to `Clc1nc(NC23CC4CC(CC(C4)C2)C3)nc(NC23CC4CC(CC(C4)C2)C3)n1`, the GI50 was 12.6 µM (inactive) in the experiment on MCF7; > 61.4 µM (inactive) with BT-549; 19.3 µM (inactive) in the experiment on SK-MEL-2; 46.8 µM (inactive) with MDA-N; 18 µM (inactive) with SNB-75; > 67.3 µM (inactive) in the experiment with COLO 205. In addition, the GI50 in the experiment with HT-29 was 66.1 µM (inactive); in the experiment with LOX IMVI, > 100 µM (inactive); in the experiment on TK-10 it was > 100 µM (inactive); with A498, > 100 µM (inactive); in the experiment on SF-295, 16.4 µM (inactive); with RPMI-8226, 19.1 µM (inactive). In addition, the GI50 in the experiment with MDA-MB-435 is 92.3 µM (inactive); in the experiment on M14, 73.1 µM (inactive); in the experiment with HOP-62, 44.2 µM (inactive); in the experiment on DU-145, 56.6 µM (inactive); in the experiment on KM12, 41.2 µM (inactive); in the experiment with NCI-H460, 61 µM (inactive). Moreover, the GI50 in the experiment on Hs-578T was 25 µM (inactive); with SNB-19, > 100 µM (inactive).
Turning to `CSc1cc(-c2ccccn2)nc(-c2ccccn2)c1`, the GI50 with MCF7 was 0.324 µM (active); in the experiment with BT-549, 0.0536 µM (active); in the experiment on SK-MEL-2, 0.552 µM (active); in the experiment on MDA-N it was 0.452 µM (active); in the experiment on SNB-75, 0.689 µM (active); in the experiment with COLO 205, 0.125 µM (active). The GI50 with HT-29 was 0.149 µM (active); with LOX IMVI, 0.043 µM (active); with TK-10, 0.0401 µM (active); with A498, 0.769 µM (active); in the experiment on SF-295, 0.0566 µM (active); in the experiment on RPMI-8226, 0.383 µM (active). For the same molecule, the GI50 is 0.327 µM (active) in the experiment on MDA-MB-435; 0.0695 µM (active) with M14; 0.0329 µM (active) with HOP-62; 0.097 µM (active) in the experiment on DU-145; 0.124 µM (active) in the experiment with KM12; 0.0541 µM (active) with NCI-H460. In addition, the results for the GI50 with Hs-578T and with SNB-19 were 3.1 µM (inactive) and 0.564 µM (active), respectively.
As for `N#Cc1nc(-c2cccs2)oc1N`, the GI50 in the experiment with MCF7 is 83.2 µM (inactive); in the experiment with BT-549, > 100 µM (inactive); in the experiment on SK-MEL-2, > 100 µM (inactive); with MDA-N it was > 100 µM (inactive); in the experiment with SNB-75 it was 92.3 µM (inactive); in the experiment on COLO 205, > 100 µM (inactive). The GI50 was > 100 µM (inactive) with HT-29; 63.5 µM (inactive) with LOX IMVI; > 100 µM (inactive) in the experiment with TK-10; > 100 µM (inactive) in the experiment on A498; > 100 µM (inactive) with SF-295; > 100 µM (inactive) in the experiment on RPMI-8226. Also, the GI50 in the experiment on MDA-MB-435, in the experiment with M14, in the experiment on HOP-62, with DU-145, in the experiment on KM12 and in the experiment on NCI-H460 was > 100 µM (inactive) in each case. In addition, the GI50 in the experiment on Hs-578T and with SNB-19 was > 100 µM (inactive) in each case.
As for `O=C(O)C1C2C=CC(O2)C1C(=O)Nc1ncccn1` (stereo not given), the GI50 in the experiment with MCF7, in the experiment on BT-549, in the experiment on SK-MEL-2, with MDA-N, in the experiment on SNB-75 and in the experiment on COLO 205 was > 100 µM (inactive) in each case. Moreover, the GI50 in the experiment with HT-29, in the experiment on LOX IMVI, in the experiment with TK-10, with A498, with SF-295 and in the experiment on RPMI-8226 was > 100 µM (inactive) in each case. Besides, the GI50 with MDA-MB-435, with M14, with HOP-62, with DU-145, in the experiment with KM12 and in the experiment on NCI-H460 was > 100 µM (inactive) each time. In addition, the GI50 in the experiment on Hs-578T and with SNB-19 was > 100 µM (inactive) in each case.
With `O=C(O)c1cncc(C(=O)O)c1`, the GI50 with MCF7, in the experiment on BT-549, in the experiment on SK-MEL-2, in the experiment with MDA-N, in the experiment on SNB-75 and in the experiment with COLO 205 was > 100 µM (inactive) throughout. Further, the GI50 in the experiment on HT-29, in the experiment with LOX IMVI, in the experiment on TK-10, in the experiment with A498, with SF-295 and in the experiment with RPMI-8226 was > 100 µM (inactive) in each case. For the same molecule, the GI50 with MDA-MB-435, in the experiment with M14, with HOP-62, in the experiment with DU-145, in the experiment on KM12 and with NCI-H460 was > 100 µM (inactive) in each case. Besides, the GI50 in the experiment with Hs-578T and with SNB-19 was > 100 µM (inactive) in each case.
In the case of `O=C(CCl)Nc1ccc(-c2nc3ccccc3s2)cc1`, the GI50 was 0.184 µM (active) in the experiment with MCF7; 1.6 µM (inactive) in the experiment with BT-549; 2.65 µM (inactive) with SK-MEL-2; 2.49 µM (inactive) with MDA-N; 4.06 µM (inactive) with SNB-75; 2.07 µM (inactive) in the experiment with COLO 205. Further, the GI50 with HT-29 was 2.39 µM (inactive); with LOX IMVI, 0.847 µM (active); with TK-10 it was 15.7 µM (inactive); in the experiment with A498, 6.82 µM (inactive); in the experiment with SF-295, 6.92 µM (inactive); in the experiment on RPMI-8226 it was 2.26 µM (inactive). The GI50 is 4.03 µM (inactive) in the experiment on MDA-MB-435; 1.97 µM (inactive) in the experiment with M14; 3.72 µM (inactive) in the experiment with HOP-62; 10.4 µM (inactive) with DU-145; 3.3 µM (inactive) in the experiment on KM12; 2.84 µM (inactive) in the experiment on NCI-H460. In addition, the GI50 was 5.96 µM (inactive) with Hs-578T and 2.4 µM (inactive) in the experiment on SNB-19.
On to `Nc1nc(Cl)cc(NCC2(CO)CCCC2)n1`, for which the GI50 is 75.2 µM (inactive) in the experiment with MCF7; > 100 µM (inactive) in the experiment with BT-549; > 100 µM (inactive) in the experiment on SK-MEL-2; > 100 µM (inactive) with MDA-N; 85.7 µM (inactive) in the experiment on SNB-75; > 100 µM (inactive) in the experiment with COLO 205. For the same molecule, the GI50 is > 100 µM (inactive) in the experiment with HT-29; 59.7 µM (inactive) in the experiment on LOX IMVI; > 100 µM (inactive) in the experiment with TK-10; > 100 µM (inactive) in the experiment with A498; > 100 µM (inactive) in the experiment with SF-295; > 100 µM (inactive) with RPMI-8226. The GI50 with MDA-MB-435, with M14, in the experiment with HOP-62, with DU-145, with KM12 and in the experiment with NCI-H460 was > 100 µM (inactive) each time. Also, the GI50 with Hs-578T and with SNB-19 was > 100 µM (inactive) each time.
